The first experiment deals with GCN2 kinase (Homo sapiens, UniProt Q9P2K8). In words: GCN2 enzyme inhibition assay (Transcreener ADP2 fluorescence polarization). It counts as biochemical. Particulars: Enzyme activity for compounds of Formula IV; Ki(app), 280 μM ATP, 25° C. In short, it runs like this:
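Inhibition of 4 nM GCN2 was measured with compound up to 8 μM final, ATP 280 μM and (RS)7 peptide 200 μM over a 1 h, 25 °C reaction. ADP FP readout; IC50 and Ki(app) calculated from percent inhibition.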
A general note: Fluorescence polarisation rises when a labelled molecule tumbles more slowly, as on binding a larger partner.
GCN2 kinase, sequence (Q9P2K8 whole entry): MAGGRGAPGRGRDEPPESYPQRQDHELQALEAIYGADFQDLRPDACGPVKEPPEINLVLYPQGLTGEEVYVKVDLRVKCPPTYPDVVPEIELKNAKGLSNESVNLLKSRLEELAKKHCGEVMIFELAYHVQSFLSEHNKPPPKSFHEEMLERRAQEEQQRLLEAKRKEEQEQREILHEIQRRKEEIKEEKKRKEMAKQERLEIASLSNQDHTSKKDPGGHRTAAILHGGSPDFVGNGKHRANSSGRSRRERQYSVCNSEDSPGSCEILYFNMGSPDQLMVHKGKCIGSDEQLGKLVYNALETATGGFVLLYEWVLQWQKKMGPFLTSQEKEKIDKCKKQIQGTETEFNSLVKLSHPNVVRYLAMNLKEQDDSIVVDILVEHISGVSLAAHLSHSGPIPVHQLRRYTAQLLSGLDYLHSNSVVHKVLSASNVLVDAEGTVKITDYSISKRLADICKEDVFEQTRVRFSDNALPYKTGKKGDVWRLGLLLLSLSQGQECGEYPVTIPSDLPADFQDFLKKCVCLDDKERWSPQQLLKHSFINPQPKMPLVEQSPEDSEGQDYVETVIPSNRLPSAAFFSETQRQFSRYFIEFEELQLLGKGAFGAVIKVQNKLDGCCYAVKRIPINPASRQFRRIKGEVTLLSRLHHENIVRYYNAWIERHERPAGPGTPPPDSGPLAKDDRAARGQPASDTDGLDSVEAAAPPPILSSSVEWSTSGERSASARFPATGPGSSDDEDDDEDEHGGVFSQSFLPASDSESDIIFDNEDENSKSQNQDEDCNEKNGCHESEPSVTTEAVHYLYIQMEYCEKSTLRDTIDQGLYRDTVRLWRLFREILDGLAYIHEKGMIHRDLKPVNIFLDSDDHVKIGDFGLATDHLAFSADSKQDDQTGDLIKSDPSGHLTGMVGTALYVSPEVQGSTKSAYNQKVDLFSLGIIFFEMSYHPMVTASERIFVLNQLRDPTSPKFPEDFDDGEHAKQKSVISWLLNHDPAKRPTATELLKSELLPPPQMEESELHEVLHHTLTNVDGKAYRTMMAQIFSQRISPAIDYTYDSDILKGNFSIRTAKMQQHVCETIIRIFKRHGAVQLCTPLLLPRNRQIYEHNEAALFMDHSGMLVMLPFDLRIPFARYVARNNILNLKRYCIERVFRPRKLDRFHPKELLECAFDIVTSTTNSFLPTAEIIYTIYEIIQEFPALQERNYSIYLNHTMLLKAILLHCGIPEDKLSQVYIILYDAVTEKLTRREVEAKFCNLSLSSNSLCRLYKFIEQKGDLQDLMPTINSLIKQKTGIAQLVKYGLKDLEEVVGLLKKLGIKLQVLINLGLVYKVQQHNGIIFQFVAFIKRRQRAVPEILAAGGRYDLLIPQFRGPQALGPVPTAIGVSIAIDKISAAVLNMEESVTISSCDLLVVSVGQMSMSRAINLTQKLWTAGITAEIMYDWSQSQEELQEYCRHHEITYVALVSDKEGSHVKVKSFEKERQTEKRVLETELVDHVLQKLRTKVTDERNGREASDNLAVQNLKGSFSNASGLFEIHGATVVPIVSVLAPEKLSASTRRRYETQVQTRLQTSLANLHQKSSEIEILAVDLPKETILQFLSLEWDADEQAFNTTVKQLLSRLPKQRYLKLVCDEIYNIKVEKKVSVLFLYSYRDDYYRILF
As to `FC(F)(F)c1cn2c(-c3nccc(N4CCCC(c5ncon5)C4)n3)cnc2cn1` (stereo not shown) [IV-321, 3-(1-(2-(6-(Trifluoromethyl)imidazo[1,2-a]pyrazin-3-yl)pyrimidin-4-yl)piperidin-3-yl)-1,2,4-oxadiazole], the Ki was in the range of 0.1 to 1 µM.

Consider `FC(F)(F)c1cn2c(-c3nccc(N4CCC5(CCOCC5)C4)n3)cnc2cn1` [IV-522, 2-(2-(6-(Trifluoromethyl)imidazo[1,2-a]pyrazin-3-yl)pyrimidin-4-yl)-8-oxa-2-azaspiro[4.5]decane], for which the Ki was 0.1 to 1 µM.

For the compound `NC(=O)c1cn2c(-c3nccc(N4CCOCC4)n3)cnc2cn1` [IV-240], the Ki was 0.1 to 1 µM.

`FC(F)(F)c1cn2c(-c3nccc(N4CCC(c5cccnc5)C4)n3)cnc2cn1` (stereo not shown) [IV-646, 3-(4-(3-(Pyridin-3-yl)pyrrolidin-1-yl)pyrimidin-2-yl)-6-(trifluoromethyl)imidazo[1,2-a]pyrazine] gave a Ki of 0.01 to 0.1 µM.

Compound `FC(F)(F)c1cn2c(-c3nccc(N4CCC(c5ccccc5)C4)n3)cnc2cn1` (stereo not shown) [IV-556, 3-(4-(3-Phenylpyrrolidin-1-yl)pyrimidin-2-yl)-6-(trifluoromethyl)imidazo[1,2-a]pyrazine] had a Ki of 0.1 to 1 µM.

The compound `CNS(=O)(=O)C1CCN(c2ccnc(-c3cnc4cnc(C(N)=O)cn34)n2)CC1` [IV-252, 3-(4-(4-(N-Methylsulfamoyl)piperidin-1-yl)pyrimidin-2-yl)imidazo[1,2-a]pyrazine-6-carboxamide] displayed a Ki of 0.1 to 1 µM.

The compound `CC1CN(c2ccnc(-c3cnc4cnc(C(F)(F)F)cn34)n2)C(C)(C)C1` (stereo not shown) [IV-610, 6-(Trifluoromethyl)-3-(4-(2,2,4-trimethylpyrrolidin-1-yl)pyrimidin-2-yl)imidazo[1,2-a]pyrazine] registered a Ki of 0.1 to 1 µM.

In the case of `FC(F)(F)c1cn2c(-c3nccc(N4CCCC(c5nn[nH]n5)C4)n3)cnc2cn1` (stereo not shown) [IV-331, 3-(4-(3-(2H-Tetrazol-5-yl)piperidin-1-yl)pyrimidin-2-yl)-6-(trifluoromethyl)imidazo[1,2-a]pyrazine], the Ki is 0.1 to 1 µM.

`CC(=O)N1CCN(c2ccnc(-c3cnc4cnc(-c5cn(C)nc5C)cn34)n2)CC1` [IV-307, 1-(4-(2-(6-(1,3-Dimethyl-1H-pyrazol-4-yl)imidazo[1,2-a]pyrazin-3-yl)pyrimidin-4-yl)piperazin-1-yl)ethan-1-one] gave a Ki of 0.1 to 1 µM.

In the case of `CC(=O)N(C)C1CCN(c2ccnc(-c3cnc4cnc(C(N)=O)cn34)n2)C1` (stereo not shown) [IV-267, 3-(4-(3-(N-Methylacetamido)pyrrolidin-1-yl)pyrimidin-2-yl)imidazo[1,2-a]pyrazine-6-carboxamide], the Ki is 0.1 to 1 µM.

Compound `O=C(N[C@H]1CCCN(c2ccnc(-c3cnc4cnc(C(F)(F)F)cn34)n2)C1)c1ccn(C2CC2)n1` [IV-742] had a Ki above 1 µM.

In the case of `CS(=N)(=O)CC1CCCN(c2ccnc(-c3cnc4cnc(C(F)F)cn34)n2)C1` (single isomer, unassigned) [IV-338, ((1-(2-(6-(Difluoromethyl)imidazo[1,2-a]pyrazin-3-yl)pyrimidin-4-yl)piperidin-3-yl)methyl)(imino)(methyl)-λ^6-sulfanone], the Ki was 0.1 to 1 µM.

In the case of `CC1CN(c2nccc(-c3cnc4cnc(C(F)(F)F)cn34)n2)C(C)C(c2cn[nH]c2)N1` (single isomer, unassigned) [IV-370, 3-(2-(2,5-Dimethyl-3-(1H-pyrazol-4-yl)piperazin-1-yl)pyrimidin-4-yl)-6-(trifluoromethyl)imidazo[1,2-a]pyrazine], the Ki is 0.1 to 1 µM.

For `NC(C1CCCN(c2ccnc(-c3cnc4cnc(C(F)(F)F)cn34)n2)C1)C(F)(F)F` (stereo not shown) [IV-502, 2,2,2-Trifluoro-1-(1-(2-(6-(trifluoromethyl)imidazo[1,2-a]pyrazin-3-yl)pyrimidin-4-yl)piperidin-3-yl)ethan-1-amine], the Ki was 0.1 to 1 µM.

For `CC1CN(c2ccnc(-c3cnc4cnc(Cl)cn34)n2)C(C)C(c2cn[nH]c2)N1` (single isomer, unassigned) [IV-246, 6-Chloro-3-(4-(2,5-dimethyl-3-(1H-pyrazol-4-yl)piperazin-1-yl)pyrimidin-2-yl)imidazo[1,2-a]pyrazine], the Ki is 0.1 to 1 µM.

`CC(=O)N1CCN(c2ccnc(-c3cnc4cnc(-c5ccc(C(N)=O)cc5)cn34)n2)CC1` [IV-303, 4-(3-(4-(4-Acetylpiperazin-1-yl)pyrimidin-2-yl)imidazo[1,2-a]pyrazin-6-yl)benzamide] registered a Ki of 0.1 to 1 µM.

`FC(F)(F)c1cn2c(-c3nccc(N4CCC(COc5ccccc5)C4)n3)cnc2cn1` (stereo not shown) [IV-559, 3-(4-(3-(Phenoxymethyl)pyrrolidin-1-yl)pyrimidin-2-yl)-6-(trifluoromethyl)imidazo[1,2-a]pyrazine] registered a Ki of 0.1 to 1 µM.

`FC(F)(F)c1cn2c(-c3nccc(N4CCC(CN5CCOCC5)CC4)n3)cnc2cn1` [IV-510, 4-((1-(2-(6-(Trifluoromethyl)imidazo[1,2-a]pyrazin-3-yl)pyrimidin-4-yl)piperidin-4-yl)methyl)morpholine]: the Ki lay within 0.1 to 1 µM.

As to `CC(=O)NC1CCN(c2ccnc(-c3cnc4cnc(C(F)(F)F)cn34)n2)C1` (stereo not shown) [IV-528, N-(1-(2-(6-(Trifluoromethyl)imidazo[1,2-a]pyrazin-3-yl)pyrimidin-4-yl)pyrrolidin-3-yl)acetamide], the Ki lay in the range of 0.1 to 1 µM.

Consider `CC1C(c2cn[nH]c2)OCCN1c1ccnc(-c2cnc3cnc(Cl)cn23)n1` (single isomer, unassigned) [IV-316, 4-(2-(6-Chloroimidazo[1,2-a]pyrazin-3-yl)pyrimidin-4-yl)-3-methyl-2-(1H-pyrazol-4-yl)morpholine], for which the Ki fell in the range of 0.1 to 1 µM.

In the case of `CC1CC(C(N)=O)C(C)N(c2ccnc(-c3cnc4cnc(C(F)(F)F)cn34)n2)C1` (single isomer, unassigned) [IV-500, 2,5-Dimethyl-1-(2-(6-(trifluoromethyl)imidazo[1,2-a]pyrazin-3-yl)pyrimidin-4-yl)piperidine-3-carboxamide], the Ki lay in the range of 0.1 to 1 µM.

The same experiment, now with this note: compounds of Formula II; 280 μM ATP, 4 nM GCN2 kinase.
As for `N#CCC1CN(c2cc(-c3cnc4ccc(C(F)F)nn34)ncn2)CCO1` (single isomer, unassigned) [II-564, 2-(4-(6-(6-(Difluoromethyl)imidazo[1,2-b]pyridazin-3-yl)pyrimidin-4-yl)morpholin-2-yl)acetonitrile], the Ki was 0.01 to 1 µM.

As to `Cc1noc([C@@H]2CN(c3cc(-c4cnc5ccc(C(F)(F)F)nn45)ccn3)C[C@H](C)O2)n1` [II-745], the Ki fell in the range of 0.01 to 1 µM.

`CC1CC(N=S(C)(C)=O)C(C)N(c2cc(-c3cnc4ccc(C(F)F)nn34)ncn2)C1` (single isomer, unassigned) [II-630, ((1-(6-(6-(Difluoromethyl)imidazo[1,2-b]pyridazin-3-yl)pyrimidin-4-yl)-2,5-dimethylpiperidin-3-yl)imino)dimethyl-λ^6-sulfanone] had a Ki of 0.01 to 1 µM.

Compound `CC1C(CCO)N(C)CCN1c1cc(-c2cnc3ccc(C(F)F)nn23)ncn1` (stereo not shown) [II-536, 2-(4-(6-(6-(Difluoromethyl)imidazo[1,2-b]pyridazin-3-yl)pyrimidin-4-yl)-1,3-dimethylpiperazin-2-yl)ethan-1-ol] gave a Ki of 0.01 to 1 µM.

Regarding `CC1CC(CS(C)(=O)=O)C(C)N(c2cc(-c3cnc4ccc(C(F)F)nn34)ncn2)C1` (single isomer, unassigned) [II-626, 6-(difluoromethyl)-3-[6-[2,5-dimethyl-3-(methylsulfonylmethyl)-1-piperidyl]pyrimidin-4-yl]imidazo[1,2-b]pyridazine], the Ki was below 0.01 µM.

The compound `COCCN1CCN(c2cc(-c3cnc4ccc(C(F)F)nn34)ncn2)C(C)C1CNS(C)(=O)=O` (stereo not shown) [II-494, N-((4-(6-(6-(Difluoromethyl)imidazo[1,2-b]pyridazin-3-yl)pyrimidin-4-yl)-1-(2-methoxyethyl)-3-methylpiperazin-2-yl)methyl)methanesulfonamide] gave a Ki below 0.01 µM.

For the compound `CCS(C)(=O)=NC1CC(C)CN(c2cc(-c3cnc4ccc(C(F)F)nn34)ncn2)C1` (single isomer, unassigned) [II-642, ((1-(6-(6-(Difluoromethyl)imidazo[1,2-b]pyridazin-3-yl)pyrimidin-4-yl)-5-methylpiperidin-3-yl)imino)(ethyl)(methyl)-λ^6-sulfanone], the Ki is below 0.01 µM.

The compound `CS(C)(=O)=Nc1cccc(-c2cc(-c3cnc4ccc(C(F)F)nn34)ncn2)c1` [II-599, [3-[6-[6-(Difluoromethyl)imidazo[1,2-b]pyridazin-3-yl]pyrimidin-4-yl]phenyl]imino-dimethyl-oxo-λ^6-sulfane] displayed a Ki of 0.01 to 1 µM.

Consider `FC(F)c1ccc2ncc(-c3ccnc(N4CCCC(c5cn[nH]c5)C4)c3)n2n1` (stereo not shown) [II-750], for which the Ki was below 0.01 µM.

The compound `CC1C(N=S(C)(C)=O)CCCN1c1cc(-c2cnc3ccc(C(F)F)nn23)ncn1` (stereo not shown) [II-578, ((1-(6-(6-(Difluoromethyl)imidazo[1,2-b]pyridazin-3-yl)pyrimidin-4-yl)-2-methylpiperidin-3-yl)imino)dimethyl-λ^6-sulfanone] yielded a Ki below 0.01 µM.

`CC1C(N=S(C)(C)=O)CCCN1c1cc(-c2cnc3ccc(C(F)F)nn23)ncn1` (stereo not shown) [II-579, ((1-(6-(6-(Difluoromethyl)imidazo[1,2-b]pyridazin-3-yl)pyrimidin-4-yl)-2-methylpiperidin-3-yl)imino)dimethyl-λ^6-sulfanone] yielded a Ki of 0.01 to 1 µM.

Compound `CS(=O)(=O)NCC1CCCN(c2cc(-c3cnc4ccc(C(F)F)nn34)cc(NCCO)n2)C1` (stereo not shown) [II-91, N-((1-(4-(6-(Difluoromethyl)imidazo[1,2-b]pyridazin-3-yl)-6-((2-hydroxyethyl)amino)pyridin-2-yl)piperidin-3-yl)methyl)methanesulfonamide] registered a Ki below 0.01 µM.

Still in this experiment, the particulars now being: compounds of Formula III; 280 μM ATP, 4 nM GCN2 kinase.
For the compound `c1ccc(-c2cc(-c3cnn4cccnc34)ccn2)cc1` [III-15, 3-(2-phenylpyridin-4-yl)pyrazolo[1,5-a]pyrimidine], the Ki was above 1 µM.
